From patent US20030170326A1, “Bioavailability enchancing activity of Zingiber officinale Linn and its extracts/fractions thereof” (COUNCIL OF SCIENTIFIC AND INDUSTRIAL RESEARCH, priority 2001, published 2003)

Assay: Bioavailability enhancement of a drug/nutraceutical/herbal product given with bioenhancer (BE) to fasted rats; plasma drug level by HPLC, 0-24 hrs
Settings: drug + BE from Zingiber officinale (extract 30 mg/kg or fraction No 1 15 mg/kg)

Row | SMILES | % Enhancement in bioavailability, BE from Zingiber officinale [%]
1 | CN(Cc1cc(Br)cc(Br)c1N)C1CCCCC1 [Bromhexine] | 46

Same assay, conditions: drug + piperine 8 mg/kg + BE from Zingiber officinale

Row | SMILES | % Enhancement in bioavailability, Piperine + BE from Zingiber officinale [%]
2 | Nc1ccc(S(=O)(=O)c2ccc(N)cc2)cc1 [Dapsone] | 55
3 | CCc1cc(C(N)=S)ccn1 [Ethionamide] | 48
4 | CC(=O)N1CCN(c2ccc(OCC3COC(Cn4ccnc4)(c4ccc(Cl)cc4Cl)O3)cc2)CC1 (centres unmarked) [Ketoconazole] | 100
5 | CN(Cc1cc(Br)cc(Br)c1N)C1CCCCC1 [Bromhexine] | 75
6 | CN(Cc1cnc2nc(N)nc(N)c2n1)c1ccc(C(=O)N[C@@H](CCC(=O)O)C(=O)O)cc1 [Methotrexate] | 49
7 | CO[C@H]1/C=C/O[C@@]2(C)Oc3c(C)c(O)c4c(O)c(c(/C=N/N5CCN(C)CC5)c(O)c4c3C2=O)NC(=O)/C(C)=C\C=C\[C@H](C)[C@H](O)[C@@H](C)[C@@H](O)[C@@H](C)[C@H](OC(C)=O)[C@@H]1C [Rifampicin] | 98
8 | COc1cccc2c1C(=O)c1c(O)c3c(c(O)c1C2=O)C[C@@](O)(C(=O)CO)C[C@@H]3O[C@H]1C[C@H](N)[C@H](O)[C@H](C)O1 [Doxorubicin] | 75
9 | CC(C)(C)NCC(O)c1ccc(O)c(CO)c1 (centres unmarked) [Salbutamol] | 92
10 | Cc1cn([C@H]2C[C@H](N=[N+]=[N-])[C@@H](CO)O2)c(=O)[nH]c1=O [Zidovudine] | 126
11 | CC(C)NCC(O)COc1cccc2ccccc12 (centres unmarked) [Propranolol] | 104
12 | CC1(C)S[C@@H]2[C@H](NC(=O)[C@H](N)c3ccc(O)cc3)C(=O)N2[C@H]1C(=O)O [Amoxycillin] | 90
13 | CN/C(=N/CCSCc1nc[nH]c1C)NC#N [Cimetidine] | 76
14 | Cc1nnc2n1-c1ccc(Cl)cc1C(c1ccccc1)=NC2 [Aiprazolam, Alprazolam] | 70
15 | NCCCC[C@H](N[C@@H](CCc1ccccc1)C(=O)O)C(=O)N1CCC[C@H]1C(=O)O [Lisinopril] | 100
16 | O=c1[nH]cc(F)c(=O)[nH]1 [5-Fluorouracil] | 93
17 | Cn1c(=O)c2[nH]cnc2n(C)c1=O [Theophylline] | 80
18 | CS(=O)(=O)Nc1ccc([N+](=O)[O-])cc1Oc1ccccc1 [Nimesulide] | 165

Assay: not given
Settings: rat, in vivo

Row | SMILES | % Enhancement in bioavailability, Piperine + BE from Zingiber officinale
19 | CNC(=C[N+](=O)[O-])NCCSCc1ccc(CN(C)C)o1 [Ranitidine] | 165%
20 | O=C(O)Cc1ccccc1Nc1c(Cl)cccc1Cl [Diclofenac] | 140%
21 | CC[C@H]1OC(=O)[C@H](C)[C@@H](O[C@H]2C[C@@](C)(OC)[C@@H](O)[C@H](C)O2)[C@H](C)[C@@H](O[C@@H]2O[C@H](C)C[C@H](N(C)C)[C@H]2O)[C@](C)(O)C[C@@H](C)/C(=N\OCOCCOC)[C@H](C)[C@@H](O)[C@]1(C)O [Roxythromycin] | 93%
22 | NC(=O)c1cnccn1 [Pyrazinamide] | Nil
23 | CC[C@@H](CO)NCCN[C@@H](CC)CO [Ethambutol] | Nil
24 | CN1C(C(=O)Nc2ccccn2)=C(O)c2ccccc2S1(=O)=O [Piroxicam] | 134%
25 | NNC(=O)c1ccncc1 [Isoniazid] | Negligible
26 | CC1=C(C(=O)O)N2C(=O)[C@@H](NC(=O)[C@H](N)c3ccc(O)cc3)[C@H]2SC1 [Cefadroxil] | 65%
27 | Cc1onc(-c2ccccc2Cl)c1C(=O)N[C@@H]1C(=O)N2[C@@H]1SC(C)(C)[C@@H]2C(=O)O [Cloxacillin] | 90%
28 | CC[C@H]1OC(=O)[C@H](C)[C@@H](O[C@H]2C[C@@](C)(OC)[C@@H](O)[C@H](C)O2)[C@H](C)[C@@H](O[C@@H]2O[C@H](C)C[C@H](N(C)C)[C@H]2O)[C@](C)(O)C[C@@H](C)CN(C)[C@H](C)[C@@H](O)[C@]1(C)O [Azithromycin] | 85%
29 | NCC[C@H](O)C(=O)N[C@@H]1C[C@H](N)[C@@H](O[C@H]2O[C@H](CN)[C@@H](O)[C@H](O)[C@H]2O)[C@H](O)[C@H]1O[C@H]1O[C@H](CO)[C@@H](O)[C@H](N)[C@H]1O [Amikacin] | Nil
30 | CCOC(=O)C1=C(COCCN)NC(C)=C(C(=O)OC)C1c1ccccc1Cl (centres unmarked) [Amlodipine] | 95%
31 | N[C@@H]1CON=C1O [Cycloserine] | 70%
32 | C=CC[C@@H]1/C=C(\C)C[C@H](C)C[C@H](OC)[C@H]2O[C@@](O)(C(=O)C(=O)N3CCCC[C@H]3C(=O)O[C@H](/C(C)=C/[C@@H]3CC[C@@H](O)[C@H](OC)C3)[C@H](C)[C@@H](O)CC1=O)[C@H](C)C[C@@H]2OC [Tacrolimus] | 117%
33 | C=CC1=C(C(=O)O)N2C(=O)[C@@H](NC(=O)/C(=N\OCC(=O)O)c3csc(N)n3)[C@H]2SC1 [Cefixime] | Nil
34 | CCn1cc(C(=O)O)c(=O)c2cc(F)c(N3CCNCC3)cc21 [Norfloxacin] | Negligible
35 | Nc1nc2c(ncn2COCCO)c(=O)[nH]1 [Acyclovir] | 85%
36 | COc1ccc2[nH]c([S+]([O-])Cc3ncc(C)c(OC)c3C)nc2c1 (centres unmarked) [Omeprazole] | Nil
37 | CC[C@H]1OC(=O)[C@H](C)[C@@H](O[C@H]2C[C@@](C)(OC)[C@@H](O)[C@H](C)O2)[C@H](C)[C@@H](O[C@@H]2O[C@H](C)C[C@H](N(C)C)[C@H]2O)[C@](C)(O)C[C@@H](C)C(=O)[C@H](C)[C@@H](O)[C@]1(C)O [Erythromycin] | 105%
38 | CC1COc2c(N3CCN(C)CC3)c(F)cc3c(=O)c(C(=O)O)cn1c23 (centres unmarked) [O-floxacin, Ofloxacin] | 67%
